Laboratory results reported in patent US9487545B2, “Fused ring-containing oxazolidinones antibiotics” (Xuanzhu Pharma Co., Ltd., priority 2011, dated 2016).
In brackets after ≈: the same amount, converted by molar mass.

Legend:
Type in all cases: cell-based
[1] = system: methicillin-sensitive Staphylococcus epidermidis (MSSE); test: In vitro antibacterial activity, standard agar dilution method, MSSE; settings: clinically separated strains, read-out: Antibiotic Activity MIC MSSE
Excerpt: (§1) Strains for test: all the clinically separated strains below were purchased from public facilities.
(§2) Methicillin-resistant Staphylococcus aureus (MRSA), methicillin-resistant Staphylococcus epidermidis (MRSE), methicillin-sensitive Staphylococcus aureus (MSSA), methicillin-sensitive Staphylococcus epidermidis (MSSE), Enterococcus faecalis (efa), Enterococcus faecium (efm), streptococcus pneumoniae. Obtained from: Qianfoshan Hospital, First People's Hospital of Yunnan Province, Renji Hospital of Shanghai, People's Hospital of Jilin Province, Southwest Hospital.
(§3) some compounds of the present invention (chemical names and preparation methods thereof are as described in Preparation Examples of the compounds); linezolid (commercially available) and compound 38 (prepared following the process of Patent US2011098471).
(§4) standard agar dilution method, reference was made to National Committee for Clinical Laboratory Standards. 2006. Methods for Dilution Antimicrobial Susceptibility Tests for Bacteria That Grow Aerobically, Approved Standard Seventh Edition M7-A7.

[2] = system: Enterococcus faecium (efm); test: In vitro antibacterial activity, standard agar dilution method, efm; settings: clinically separated strains, read-out: Antibiotic Activity MIC efm
Excerpt: as §1, §2, §3, §4

[3] = system: Methicillin-resistant Staphylococcus aureus (MRSA); test: In vitro antibacterial activity, standard agar dilution method, MRSA; settings: clinically separated strains, read-out: Antibiotic Activity MIC MRSA
Excerpt: as §1, §2, §3, §4

[4] = system: Enterococcus faecalis (efa); test: In vitro antibacterial activity, standard agar dilution method, efa; settings: clinically separated strains, read-out: Antibiotic Activity MIC efa
Excerpt: as §1, §2, §3, §4

[5] = system: methicillin-sensitive Staphylococcus aureus (MSSA); test: In vitro antibacterial activity, standard agar dilution method, MSSA; settings: clinically separated strains, read-out: Antibiotic Activity MIC MSSA
Excerpt: as §1, §2, §3, §4

[6] = system: streptococcus pneumoniae; test: In vitro antibacterial activity, standard agar dilution method, Streptococcus pneumoniae; settings: clinically separated strains
Excerpt: as §1, §2, §3, §4

[7] = system: methicillin-resistant Staphylococcus epidermidis (MRSE); test: In vitro antibacterial activity, standard agar dilution method, MRSE; settings: clinically separated strains, read-out: Antibiotic Activity MIC MRSE
Excerpt: as §1, §2, §3, §4

Structure (SMILES) | MIC [1] [mg/L] | MIC [2] [mg/L] | MIC [3] [mg/L] | MIC [4] [mg/L] | MIC [5] [mg/L] | Antibiotic Activity MIC Streptococcus pneumoniae [6] [mg/L] | MIC [7] [mg/L]
Cn1nnc(N2Cc3ccc(-c4ccc(N5C[C@H](CO)OC5=O)cc4F)cc3C2)n1 [Compound 1, (R)-3-(3-fluoro-4-(2-(2-methyl-2H-tetrazol-5-yl)isoindolin-5-yl)phenyl)-5-(hydroxylmethyl)oxazolidin-2-one] | 0.5 (≈ 1.22 µM) | 0.5 (≈ 1.22 µM) | 1 (≈ 2.44 µM) | 1 (≈ 2.44 µM) | 1 (≈ 2.44 µM) | 0.25 | 0.5 (≈ 1.22 µM)
CC(=O)NC[C@H]1CN(c2ccc(-c3ccc4c(c3)CN(c3nnn(C)n3)C4)c(F)c2)C(=O)O1 [Compound 2, (S)—N-((3-(3-fluoro-4-(2-(2-methyl-2H-tetrazol-5-yl)isoindolin-5-yl)phenyl)-2-oxo-oxazolidin-5-yl)methyl)acetamide] | 0.5 (≈ 1.11 µM) | 0.5 (≈ 1.11 µM) | 0.25 (≈ 0.554 µM) | 0.5 (≈ 1.11 µM) | 0.5 (≈ 1.11 µM) | 0.5 | 0.25 (≈ 0.554 µM)
O=C1O[C@@H](CO)CN1c1ccc(-c2ccc3c(c2)CN(c2cnn[nH]2)C3)c(F)c1 [Compound 3, (R)-3-(4-(2-(1H-1,2,3-triazol-5-yl)isoindolin-5-yl)-3-fluorophenyl)-5-(hydroxylmethyl)oxazolidin-2-one] | 0.125 (≈ 0.316 µM) | 0.5 (≈ 1.26 µM) | 0.5 (≈ 1.26 µM) | 0.5 (≈ 1.26 µM) | 0.5 (≈ 1.26 µM) | 0.5 | 0.25 (≈ 0.632 µM)
CC(=O)NC[C@H]1CN(c2ccc(-c3ccc4c(c3)CN(c3cnn[nH]3)C4)c(F)c2)C(=O)O1 [Compound 4, (S)—N-((3-(4-(2-(1H-1,2,3-triazol-5-yl)isoindolin-5-yl)-3-fluorophenyl)-2-oxo-oxazolidin-5-yl)methyl)acetamide] | 0.125 (≈ 0.286 µM) | 0.25 (≈ 0.573 µM) | 0.25 (≈ 0.573 µM) | 0.25 (≈ 0.573 µM) | 0.25 (≈ 0.573 µM) | 0.5 | 0.25 (≈ 0.573 µM)
Cn1nnnc1N1Cc2ccc(-c3ccc(N4C[C@H](CO)OC4=O)cc3F)cc2C1 [Compound 19] | 0.5 (≈ 1.22 µM) | 2 (≈ 4.87 µM) | 1 (≈ 2.44 µM) | 2 (≈ 4.87 µM) | 1 (≈ 2.44 µM) | 1 | 1 (≈ 2.44 µM)
O=C1O[C@@H](CO)CN1c1ccc(-c2ccc3c(c2)CN(c2ccn[nH]2)C3)c(F)c1 [Compound 20] | 0.5 (≈ 1.27 µM) | 8 (≈ 20.3 µM) | 2 (≈ 5.07 µM) | 8 (≈ 20.3 µM) | 1 (≈ 2.54 µM) |  | 0.5 (≈ 1.27 µM)
CC(=O)NC[C@H]1CN(c2ccc(-c3ccc4nc(-c5nnn(C)n5)cn4c3)c(F)c2)C(=O)O1 [Compound 38, reference compound] | 0.5 (≈ 1.11 µM) | 0.5 (≈ 1.11 µM) | 0.5 (≈ 1.11 µM) | 0.25 (≈ 0.555 µM) | 0.5 (≈ 1.11 µM) | 0.5 | 0.25 (≈ 0.555 µM)
CC(=O)NC[C@H]1CN(c2ccc(N3CCOCC3)c(F)c2)C(=O)O1 [Linezolid, reference compound] | 2 (≈ 5.93 µM) | 2 (≈ 5.93 µM) | 2 (≈ 5.93 µM) | 2 (≈ 5.93 µM) | 2 (≈ 5.93 µM) | 2 | 1 (≈ 2.96 µM)
